Target: T1, cannabinoid CB1 (Homo sapiens, UniProt P21554)
T1 construct: purchased
Test: Competition binding assay for cannabinoid CB1 affinity (3H-CP55,940 displacement, membranes)
Details: competition binding vs 0.5 nM 3H-CP55,940; Ki by Cheng-Prusoff; read-out: Ki values in the assay described above
Procedure: Method for Evaluating Cannabinoid CB1 and CB affinity
Competition binding assays for cannabinoid CB1 and CB2 affinity were performed by incubating commercially purchased membranes prepared from cells expressing each receptor subtype (8 μg pro) with 0.5 nM ^3H-CP55,940, a non-selective cannabinoid agonist, along with concentrations of drug ranging from 0.0001-3 μM in Buffer A (5 mM MgCl2, 2.5 mM EDTA and […] BSA). Non-specific binding was defined in the presence of 10 μM CP55,940. For saturation studies, concentrations of ^3H-CP55,940 ranging from 0.1-5 nM were incubated with membranes in the presence and absence of 10 μM CP55,940. Assays were terminated after incubation for 1½ hours by rapid filtration onto 0.3 polyethylenamine treated GF/C filterplates using a BRANDEL cell harvester. The plates were dried and MICROSCINT scintillation cocktail was added, after which the bound radioactivity was quantified using a TOPCOUNT scintillation counter.
The dissociation constant (Kd) of ^3H-CP55,940 at the CB1 and CB2 receptor were determined by plotting specific binding at each concentration of radioligand, and analysis by non-linear regression. For competition studies, the concentration of each drug that inhibited 50 percent of ^3H-CP55,940 binding (IC50) was determined by non-linear regression analysis of the radioligand displacement curves. Affinity constants (Ki) were calculated using the equation derived by Cheng and Prusoff (1973), defined as: IC50/1+[conc. ligand/Kd].

T1 sequence (P21554 whole entry): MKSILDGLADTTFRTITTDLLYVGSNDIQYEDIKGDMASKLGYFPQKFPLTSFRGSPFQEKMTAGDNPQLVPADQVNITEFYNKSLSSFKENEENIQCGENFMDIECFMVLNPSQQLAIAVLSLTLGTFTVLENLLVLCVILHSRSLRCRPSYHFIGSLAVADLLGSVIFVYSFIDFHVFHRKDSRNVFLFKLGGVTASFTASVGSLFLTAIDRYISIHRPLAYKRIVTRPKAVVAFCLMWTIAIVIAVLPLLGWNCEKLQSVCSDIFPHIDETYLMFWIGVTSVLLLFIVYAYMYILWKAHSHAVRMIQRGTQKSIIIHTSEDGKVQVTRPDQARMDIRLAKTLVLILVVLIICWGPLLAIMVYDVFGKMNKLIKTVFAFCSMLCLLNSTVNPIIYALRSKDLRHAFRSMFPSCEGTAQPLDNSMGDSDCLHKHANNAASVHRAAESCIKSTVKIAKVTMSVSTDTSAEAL

Compound	Ki [µM]
COc1ccc(N2CCN(Cc3ccccc3)C[C@H]2c2ccc(Cl)cc2)c(Cl)c1 [Example 807]	≥ 0.9
COc1cccc([C@@H]2CNCCN2c2ccc(C#N)cc2Cl)c1 [Example 813b]	≥ 0.9
COC(=O)c1ccc(N2CCN(Cc3ccccc3)C[C@H]2c2ccc(Cl)cc2)cc1 [Example 817]	≥ 0.9
COc1ccc(N2CCNC[C@H]2c2ccc(Cl)cc2)c(F)c1 [Example 822]	≥ 0.9
OCc1ccc(N2CCN(Cc3ccccc3)C[C@H]2c2ccc(Cl)cc2)cc1 [Example 824]	≥ 0.9
N#Cc1ccc(N2CCNC[C@H]2c2ccc(Cl)cc2)nc1 [Example 826b]	≥ 0.9
N#Cc1cccnc1N1CCNC[C@H]1c1ccc(Cl)cc1 [Example 826d]	≥ 0.9
COc1ccc(N2CCNC[C@H]2c2ccc(F)cc2)c(C#N)c1 [Example 826e]	≥ 0.9
O=C1CN(Cc2ccccc2)C[C@@H](c2ccc(Cl)cc2)N1c1ccc(O)cc1Cl [Example 830]	≥ 0.9
O=C1CN(Cc2ccccc2)C[C@@H](c2ccc(Cl)cc2)N1c1ccc(O)cc1 [Example 831]	≥ 0.9
CC(O)(CN1CCN(c2ccc(Cl)cc2Cl)[C@H](c2ccc(Cl)cc2)C1)C(=O)O (some centres unmarked) [Example 877b]	≥ 0.9
C[C@@](O)(CN1CCN(c2ccc(Cl)cc2Cl)[C@H](c2ccc(Cl)cc2)C1)c1ccc(Cl)cc1 [Example 930]	0.0002 to 0.1
C[C@@](O)(CN1CCN(c2ccc(C#N)cc2Cl)[C@H](c2ccc(Cl)cc2)C1)c1cc(F)cc(F)c1 [Example 949]	0.0002 to 0.1
C[C@@](O)(CN1CCN(c2ccc(Cl)cc2Cl)[C@H](c2ccc(Cl)cc2)C1)c1ccc(N)nc1 [Example 1037]	0.0002 to 0.1
CC(C)(C)CCN1CCC(C(C)(O)CN2CCN(c3ccc(Cl)cc3Cl)[C@H](c3ccc(Cl)cc3)C2)CC1 (some centres unmarked) [Example 1089]	~0.873
CC(O)(CN1CCN(c2ccc(Cl)cc2Cl)[C@H](c2ccc(Cl)cc2)C1)C1CCN(S(=O)(=O)C2CC2)CC1 (some centres unmarked) [Example 1091]	0.0002 to 0.1
CC(C)(C)OC(=O)N[C@@H](C(=O)N1CCN(c2ccc(Cl)cc2Cl)[C@H](c2ccc(Cl)cc2)C1)c1ccc(Cl)cc1 [Example 1167a]	≥ 0.9

From patent publication US20130072468A1, “SUBSTITUTED PIPERAZINES AS CB1 ANTAGONISTS” (priority 2011, published 2013)
